Common to all, as to experiment: inhibition of tumour cell growth, NCI panel, 48 h
Assay [1] concerns MDA-MB-435.
Assay [2] concerns OVCAR-5 ovarian.
Assay [3] has as its system HOP-62 NSCLC.
In assay [4] the test system is RPMI-8226 leukemia.
Assay [5] deals with HL-60(TB) leukemia.
The test system of assay [6] is IGROV1 ovarian.
Assay [7] has as its system OVCAR-3 ovarian.
For assay [8], the system named is A549 NSCLC.
In assay [9] the test system is MALME-3M melanoma.
Assay [10] relates to SNB-75 CNS.
The subject of assay [11] is SK-MEL-28 melanoma.
Assay [12] has as its system M14 melanoma.
In assay [13] the test system is MDA-MB-231 breast.
In assay [14] the test system is UACC-62 melanoma.
Assay [15] relates to HCT-116 colon.
For assay [16], the system named is COLO 205 colon.
Assay [17] has as its system SK-OV-3 ovarian.

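Interpolation was linear, between the two tested concentrations surrounding the appropriate level; five concentrations were tested over 48 hours in 96-well plates. The concentration for full growth arrest is given as TGI.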

On to `COc1ccc(C2c3cn[nH]c3CC3CCCCC32)cc1` (configuration not stated), for which the TGI is 40.4 µM in [1]; 34.8 µM in assay [2]; 36.8 µM in assay [3]; 73.2 µM in [4]; 61.2 µM in assay [5]; 26.6 µM in assay [6]. Further, the TGI in assay [7] was determined as 28.9 µM; in [8] it was 30.9 µM; in [9], 38.4 µM; in assay [10] it was 27.2 µM; in [11], 33.4 µM; in assay [12] it was 36.6 µM. The results for the TGI in [13], in assay [14] and in assay [15] were 30.4 µM, 24.6 µM and 31.7 µM, respectively.
Consider `CC(NC(=O)Cc1ccccc1)NC(=O)C(C)C(=O)Nc1ccccc1` (configuration not stated), for which the TGI in assay [1], in assay [2], in [4], in assay [6], in assay [16] and in [8] was greater than 100 µM each time. Moreover, the TGI in [9], in assay [10], in [17], in assay [12], in assay [13] and in assay [14] was greater than 100 µM throughout. Further, the TGI in assay [15] is greater than 100 µM.
In the case of `O=C1OC(C2Cc3ccc4ccccc4c3C2=O)c2ccccc21` (configuration not stated), the TGI in assay [1] is greater than 100 µM; in assay [2] it was greater than 100 µM; in assay [4] it was 93.3 µM; in assay [5], greater than 100 µM; in [6], greater than 100 µM; in assay [16], greater than 100 µM. In addition, the TGI in [7] is 98.1 µM; in assay [8], greater than 100 µM; in [9], greater than 100 µM; in [10], greater than 100 µM; in assay [11], greater than 100 µM; in assay [12], greater than 100 µM. Further, the TGI in assay [13], in [14] and in assay [15] was greater than 100 µM each time.
Turning to `COC(=O)C(Cc1ccc2c(c1)CCC2)Cc1ccc2c(c1)CCC2`, the TGI was greater than 100 µM in assay [1]; greater than 100 µM in [2]; greater than 100 µM in assay [3]; greater than 100 µM in [4]; 88.8 µM in assay [5]; greater than 100 µM in [6]. Also, the TGI in assay [16], in [7], in [8], in assay [10], in assay [17] and in assay [11] was greater than 100 µM in each case. Further, the TGI in assay [12], in assay [13], in assay [14] and in [15] was greater than 100 µM throughout.
With `CSC1=N/C(=C\c2ccc(C)cc2)C(=O)N1CN1CCCCC1`, the TGI in assay [1], in assay [2], in assay [3], in [4], in assay [6] and in [16] was greater than 100 µM each time. In addition, the TGI in assay [7], in assay [8], in assay [9], in assay [10], in assay [17] and in [11] was greater than 100 µM throughout. The TGI in assay [12], in assay [13], in assay [14] and in assay [15] was greater than 100 µM throughout.
As to `O=C1NC(N2CCOCC2)=N/C1=C\c1ccco1`, the TGI in assay [1], in [2], in [3], in [4], in assay [5] and in assay [6] was greater than 100 µM in each case. The TGI in [16], in [7], in [8], in assay [10], in assay [17] and in [11] was greater than 100 µM throughout. Also, the TGI in assay [12], in assay [13], in assay [14] and in assay [15] was greater than 100 µM throughout.
As to `CC(C)(C)[Si](C)(C)OCC1OC(n2ccc(=O)[nH]c2=O)C(O[Si](C)(C)C(C)(C)C)/C1=C/C#N` (configuration not stated), the TGI in assay [1] is greater than 38.7 µM; in assay [2], greater than 100 µM; in [3], greater than 100 µM; in assay [4] it was greater than 100 µM; in assay [6], greater than 100 µM; in assay [16], 9.83 µM. The TGI in [7] is greater than 100 µM; in assay [8], greater than 100 µM; in [9], greater than 100 µM; in assay [10], greater than 100 µM; in [17] it was greater than 100 µM; in [11], greater than 71.5 µM. For the same molecule, the TGI is greater than 100 µM in assay [12], greater than 83.5 µM in [13], 2.75 µM in [14] and greater than 53.2 µM in assay [15].
Take `CN1CCOC1c1ccccc1O` (configuration not stated): the TGI in [1], in assay [2], in assay [3], in assay [4], in [6] and in [16] was greater than 100 µM throughout. The TGI in [7], in assay [8], in assay [9], in [10], in assay [17] and in assay [12] was greater than 100 µM throughout. Further, the TGI in [13], in assay [14] and in assay [15] was greater than 100 µM throughout.
For the molecule `O=C(/C=C/c1ccccc1)Oc1ccc(C(=O)/C=C/c2ccccc2)cc1`, the TGI worked out at 18.8 µM in [1]; 21.4 µM in assay [2]; 21.6 µM in assay [3]; 15.4 µM in assay [4]; 8.2 µM in assay [5]; 17.9 µM in [6]. Further, the TGI was 21 µM in assay [16]; 16 µM in assay [7]; greater than 89.1 µM in [8]; 19.8 µM in assay [10]; greater than 31.6 µM in assay [17]; 21.3 µM in [11]. Further, the TGI in [12] was found to be 23.3 µM; in assay [13], 23 µM; in assay [14] it was 17.7 µM; in assay [15] it was 14.6 µM.
As for `CC(c1ccccc1)N1CCN(C(C)c2ccccc2)CC1` (configuration not stated), the TGI in assay [1], in assay [2], in assay [3], in [4], in assay [5] and in [6] was greater than 100 µM each time. Besides, the TGI in [7] is greater than 100 µM; in assay [8] it was greater than 100 µM; in [9] it was greater than 100 µM; in assay [11], 95.4 µM; in [12], 53 µM; in assay [13], greater than 100 µM. For the same molecule, the TGI in assay [14] and in [15] was greater than 100 µM throughout.
Take `C/C(=N\N=C1/C(=O)OC(c2ccccc2)=C1C(=O)c1ccccc1)c1ccc([N+](=O)[O-])cc1`: the TGI in assay [1] was greater than 100 µM; in assay [2], greater than 100 µM; in [3], greater than 100 µM; in [4], 48.9 µM; in assay [5], greater than 100 µM; in assay [6] it was greater than 100 µM. Also, the TGI in assay [16], in [7], in assay [8], in [9], in assay [17] and in [11] was greater than 100 µM each time. Also, the TGI in assay [12], in assay [13], in [14] and in assay [15] was greater than 100 µM each time.
For `C=CCn1c(=O)c(C(=O)Nc2nc(C34CC5CC(CC(C5)C3)C4)cs2)c(O)c2ccccc21`, the TGI in [1] was greater than 100 µM; in assay [2] it was greater than 100 µM; in assay [3], greater than 100 µM; in assay [4], 87.5 µM; in assay [5], 65.6 µM; in [6], greater than 100 µM. Moreover, the TGI in [16] is greater than 100 µM; in assay [7], greater than 100 µM; in [8], 45.1 µM; in [9], greater than 100 µM; in assay [10], greater than 100 µM; in [11], greater than 100 µM. Also, the TGI in assay [13] and in assay [15] was greater than 100 µM in each case.
On to `COc1ccc(C2OC(c3ccncc3)=NN2C)cc1F` (configuration not stated), for which the TGI in assay [1], in assay [2], in assay [3], in assay [4], in assay [5] and in [6] was greater than 100 µM each time. Also, the TGI in [16], in assay [7], in assay [8], in assay [9], in [17] and in [11] was greater than 100 µM in each case. Moreover, the TGI in assay [12], in assay [13], in assay [14] and in assay [15] was greater than 100 µM in each case.
Consider `O=C1c2ccccc2C(=O)N1n1c(Cc2ccc([N+](=O)[O-])cc2)n[nH]c1=O`, for which the TGI in [1], in [2], in assay [3], in [4], in [6] and in assay [7] was greater than 100 µM each time. Also, the TGI in assay [8] was greater than 100 µM; in assay [9] it was greater than 100 µM; in [10], greater than 100 µM; in assay [11], greater than 100 µM; in [13] it was greater than 100 µM; in [14], 89.1 µM. This molecule also displayed a TGI in assay [15] greater than 100 µM.
Take `CSc1cc(-c2cccs2)sc1-c1cc(SC)c(-c2sc(-c3sc(-c4cccs4)cc3SC)cc2SC)s1`: the TGI in assay [1], in assay [2], in [3], in assay [4], in [5] and in [6] was greater than 100 µM throughout. Moreover, the TGI in [16], in assay [7], in assay [8], in [9], in assay [17] and in assay [11] was greater than 100 µM each time. In addition, the TGI in assay [12], in [13], in assay [14] and in [15] was greater than 100 µM throughout.
With `O=[N+]([O-])C(=C(Nc1cccc2cccnc12)Nc1cccc2cccnc12)C(Cl)=C(Cl)Cl`, the TGI in assay [1], in assay [2], in assay [3], in assay [4], in assay [6] and in assay [16] was greater than 100 µM throughout. The TGI in [7], in assay [8], in assay [9], in assay [10], in [17] and in assay [11] was greater than 100 µM throughout. The TGI is greater than 100 µM in assay [12], 29.6 µM in assay [13], greater than 100 µM in assay [14] and greater than 100 µM in assay [15].
For the molecule `Cc1c(/C=N\NC(=S)NCCNC(=S)N/N=C\c2c(C)n(C)n(-c3ccccc3)c2=O)c(=O)n(-c2ccccc2)n1C`, the TGI in [1], in [2], in assay [3], in assay [16], in assay [7] and in assay [8] was greater than 100 µM throughout. The TGI in [9], in [10], in [17], in assay [12], in assay [13] and in assay [14] was greater than 100 µM each time. The TGI in assay [15] is greater than 100 µM.
As to `CC(C)SC(=S)Sc1c(Cl)c(Cl)nc(Cl)c1Cl`, the TGI stood at 19.6 µM in assay [1]; 33.1 µM in assay [2]; 18.4 µM in assay [3]; 4.29 µM in assay [4]; 5.61 µM in assay [5]; 20.1 µM in [6]. Further, the TGI in [16] was 24.7 µM; in assay [7], 3.52 µM; in assay [8], 40.8 µM; in [9], 30.1 µM; in assay [17], 32.7 µM; in assay [11], greater than 100 µM. The TGI came out at 26.7 µM in assay [12], 26.7 µM in assay [13], 24.1 µM in [14] and 22.4 µM in assay [15].

The record behind these values is PubChem BioAssay (NCI).
